Where two headings read alike, the source gives them in different places. Marks after values point to notes of the source that are not given here.
How the values were obtained:
Type in all cases: in vivo
[1] = system: Septoria tritici; experiment: Test D: wheat leaf blotch, preventive spray on wheat seedlings, disease rating
Outline: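 Wheat seedlings sprayed to run-off with compound in acetone/water containing 250 ppm Trem 014 (200 ppm ≈ 500 g/ha; some results at 40 or 50 ppm), inoculated next day with Septoria tritici spores. Held 48 h saturated at 24 °C, then 19 days at 20 °C before disease rating.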

[2] = system: Puccinia recondita f. sp. tritici; experiment: Test B: wheat leaf rust, preventive spray on wheat seedlings, disease rating
Outline: (§1)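 Compounds in acetone/water (50/50) with 250 ppm Trem 014 surfactant, sprayed to run-off on wheat seedlings as a preventive treatment before disease rating. Tested at 200 ppm (equivalent to 500 g/ha) unless marked for 40 ppm or 50 ppm.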

[3] = system: Fusarium graminearum; details: wheat head scab
[4] = system: Alternaria solani; experiment: Test H: tomato early blight, preventive spray on tomato seedlings, disease rating
Outline: (§2)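 Tomato seedlings sprayed to run-off, as a preventive treatment, with compound suspended in acetone/water (50/50) containing 250 ppm Trem 014 surfactant; 200 ppm equals 500 g/ha. Disease then rated. Values are at 200 ppm unless marked * (40 ppm) or ** (50 ppm).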

[5] = system: Erysiphe graminis f. sp. tritici; experiment: Test A: wheat powdery mildew, preventive spray on wheat seedlings, disease rating
Outline: as §1

[6] = system: Septoria nodorum; experiment: Test C: wheat glume blotch, preventive spray on wheat seedlings, disease rating
Outline: as §1

[7] = system: Botrytis cinerea; experiment: Test F: tomato Botrytis, preventive spray on tomato seedlings, disease rating
Outline: as §2

[8] = 200 ppm, 100 = 100% disease control, 0 = no control relative to controls
[9] = 40 ppm (*), 100 = 100% disease control, 0 = no control relative to controls

SMILES | Percentage Disease Control, Test D ([1]; 40 ppm (*)) | Percentage Disease Control, Test B ([2]; 40 ppm (*)) | Percentage Disease Control, Test E ([3]; 40 ppm (*)) | Percentage Disease Control, Test H ([4]; 200 ppm) | Percentage Disease Control, Test A ([5]; 40 ppm (*)) | Percentage Disease Control, Test C ([6]; 40 ppm (*)) | Percentage Disease Control, Test F ([7]; 200 ppm) | Percentage Disease Control, Test C ([6]; 200 ppm) | also measured
COC(=O)NCc1cc(-c2ccn(-c3cccc(C(F)(F)F)c3)n2)ccc1Cl [Cmpd 50] | 100* % | 99* % | 97* % | 55% | 100* % | 100* % | 0% | – | –
CCCCn1ccc(-c2ccc(Cl)c(CNC(=O)OC)c2)n1 [Cmpd 46] | 91* % | 99* % | 94* % | 0% | 94* % | – | 0% | 99% | –
COC(=O)NCc1cc(-c2cc(C(F)(F)F)n(CCC[Si](C)(C)C)n2)ccc1Cl [Cmpd 45] | 99* % | 100* % | – | 0% | 99* % | – | 0% | 100% | Percentage Disease Control, Test E ([3]; 200 ppm): 26%
CC[Si](C)(C)CON=C(C)c1ccc(Cl)c(CNC(=O)OC)c1 [Compound 7] | 100* % | 100* % | 0* % | – | 100* % | 99* % | – | – | –
COC(=O)NCc1cc(-c2ccn(-c3cccc(C)n3)n2)ccc1Cl [Cmpd 49] | 100* % | 100* % | 99* % | – | – | – | 0% | 99% | Percentage Disease Control, Test H ([4]; 40 ppm (*)): 99* %; Percentage Disease Control, Test A ([5]; 200 ppm): 79%
COC(=O)NCc1cc(-c2ccn(Cc3ccccc3Cl)n2)ccc1Cl [Cmpd 37] | 100* % | 100* % | 99* % | 0% | 99* % | 100* % | 0% | – | –
C#CCCCn1nc(-c2ccc(Cl)c(CNC(=O)OC)c2)cc1C [Cmpd 39] | 100* % | 100* % | 91* % | 0% | 99* % | 99* % | 0% | – | –
COC(=O)NCc1cc(-c2ccn(CCCC(c3ccc(F)cc3)c3ccc(F)cc3)n2)ccc1Cl [Cmpd 36] | 97* % | 99* % | – | 78% | 93* % | 99* % | 0% | – | Percentage Disease Control, Test E ([3]; 200 ppm): 26%
COC(=O)NCc1cc(-c2ccn(CCCC(C)C)n2)ccc1Cl [Cmpd 41] | 98* % | 100* % | 99* % | 0% | – | – | 0% | 100% | Percentage Disease Control, Test A ([5]; 200 ppm): 99%
COC(=O)NCc1cc(-c2ccn(CCCF)n2)ccc1Cl [Cmpd 43] | – | – | – | 0% | – | – | 0% | 95% | Percentage Disease Control, Test D ([1]; 200 ppm): 93%; Percentage Disease Control, Test B ([2]; 200 ppm): 99%; Percentage Disease Control, Test E ([3]; 200 ppm): 94%; Percentage Disease Control, Test A ([5]; 200 ppm): 91%
COC(=O)NCc1cc(-c2ccn(S(=O)(=O)N(C)C)n2)ccc1Cl [Cmpd 35] | – | – | – | 0% | – | – | 0% | 0% | Percentage Disease Control, Test D ([1]; 200 ppm): 100%; Percentage Disease Control, Test B ([2]; 200 ppm): 76%; Percentage Disease Control, Test E ([3]; 200 ppm): 0%; Percentage Disease Control, Test A ([5]; 200 ppm): 76%
COC(=O)NCc1cc(C(C)=NOC[Si](C)(C)C)ccc1Cl [Compound 6] | 100* % | 100* % | 68* % | – | 99* % | 96* % | – | – | –
COC(=O)NCc1cc(-c2cc(-c3ccc(C(C)(C)C)cc3)[nH]n2)ccc1Cl [Cmpd 99] | – | – | – | 0% | – | – | 98% | 0% | Percentage Disease Control, Test D ([1]; 200 ppm): 92%; Percentage Disease Control, Test B ([2]; 200 ppm): 74%; Percentage Disease Control, Test A ([5]; 200 ppm): 82%
COC(=O)NCc1cc(-c2cc(C(F)(F)F)nn2CCC(C)(C)C)ccc1Cl [Cmpd 142] | – | – | – | – | – | – | – | – | Percentage Disease Control, Test D [1, 8]: 92%; Percentage Disease Control, Test B [2, 8]: 55%; Percentage Disease Control, Test H [4, 8]: 16%; Percentage Disease Control, Test A [5, 8]: 85%; Percentage Disease Control, Test C [6, 8]: 0%; Percentage Disease Control, Test F [7, 8]: 0%
COC(=O)NCc1cc(-c2ccnc(C3CC3)n2)ccc1Cl [Cmpd 137] | – | – | – | – | – | – | – | – | Percentage Disease Control, Test D [1, 9]: 97* %; Percentage Disease Control, Test B [2, 8]: 99%; Percentage Disease Control, Test H [4, 8]: 15%; Percentage Disease Control, Test A [5, 8]: 95%; Percentage Disease Control, Test C [6, 9]: 90* %; Percentage Disease Control, Test F [7, 8]: 0%
COC(=O)NCc1cc(-c2ccn(Cc3ccc(OC(F)(F)F)cc3)n2)ccc1Cl [Cmpd 66] | 100* % | 100* % | – | – | 99* % | 100* % | – | – | Percentage Disease Control, Test H ([4]; 40 ppm (*)): 96* %; Percentage Disease Control, Test F ([7]; 40 ppm (*)): 0* %
COC(=O)NCc1cc(-c2ccn(CCc3ccccc3)n2)ccc1Cl [Cmpd 58] | 99* % | 100* % | – | – | 98* % | 100* % | – | – | Percentage Disease Control, Test H ([4]; 40 ppm (*)): 89* %; Percentage Disease Control, Test F ([7]; 40 ppm (*)): 0* %
COC(=O)NCc1cc(-c2cnn(Cc3ccccc3Cl)c2)ccc1Cl [Cmpd 129] | – | – | – | – | – | – | – | – | Percentage Disease Control, Test D [1, 9]: 92* %; Percentage Disease Control, Test B [2, 8]: 98%; Percentage Disease Control, Test H [4, 8]: 0%; Percentage Disease Control, Test A [5, 8]: 94%; Percentage Disease Control, Test C [6, 8]: 90%; Percentage Disease Control, Test F [7, 8]: 0%
COC(=O)NCc1cc(-n2ccc(-c3cccc(Br)c3)n2)ccc1Cl [Cmpd 121] | 99* % | 98* % | – | – | 98* % | 100* % | 0% | – | Percentage Disease Control, Test H ([4]; 40 ppm (*)): 90* %
COC(=O)NCc1cc(-c2ccn(-c3nc(C4CC4)ns3)n2)ccc1Cl [Cmpd 95] | 100* % | 100* % | – | 25% | 100* % | 100* % | – | – | Percentage Disease Control, Test F ([7]; 40 ppm (*)): 90* %
COC(=O)NCc1cc(-c2ccn(-c3nc(-c4ccc(C(F)(F)F)cc4)ns3)n2)ccc1Cl [Cmpd 94] | – | – | – | 0% | – | – | 0% | 0% | Percentage Disease Control, Test D ([1]; 200 ppm): 40%; Percentage Disease Control, Test B ([2]; 200 ppm): 17%; Percentage Disease Control, Test A ([5]; 200 ppm): 0%

— patent US9198433B2, “Substituted benzene fungicides” (E I DU PONT DE NEMOURS AND COMPANY, priority 2007, dated 2015)
